Test results: patent US4882349A, “Pyrrolacetic amides having antiinflammatory activity” (priority 1982, dated 1989)
Like-named read-outs stand apart in the source and are kept apart here.

How the values were obtained:
solubility = assay type: physicochemical
gastric lesions = assay type: in vivo, male Wistar rats; conditions: 4 consecutive days; for gastric damage index: I=mean no. of lesions+mean of severity+% incidence/10; for mean severity: scale 0 (no lesion) to 5 (perforations)
Method: Male Wistar rats weighing 180 g were randomized into groups of 10. Three doses of each compound were administered. One group received the vehicle alone (10 ml/kg b.w.). Each dose was given orally for four days consecutively and the rats were sacrificed on the fifth day for necropsy. The ulcerogenic effect was evaluated by the following scale:
(1) each haemorrhagic point at least 1 mm in diameter was scored as 1 lesion,
(2) haemorrhagic points less than 1 mm in diameter were scored in the following manner:
(c) 20 to 29=three lesions
By means of this scale it was possible to obtain the gastric damage index:
I=mean no. of lesions+mean of severity+% incidence/10

[1] = system: brewers' yeast-induced hyperthermia; assay: antipyretic activity, brewers' yeast-induced hyperthermia; assay type: in vivo, albino male Wistar rats
Method: The animals were caged under the same conditions as those described in the preceding tests. Five hours following […], determined by a rectal probe connected to a YSI thermometer (73 ATP model, Yellow Springs Instrument Company) were selected for the experiment. The animals were then randomized into groups of 10 and the compounds under examination and the vehicle were administered via the oral and parenteral routes testing each dose in two groups. Body temperature was determined at one, two and three hours after administration of the substances. […]

in vivo [2] = conditions: mouse
in vivo [3] = conditions: rat
[4] = system: phenyl-p-quinone-induced writhing (abdominal contractions); assay: phenylquinone-induced writhing test, oral administration 1-24 h before phenyl-quinone (duration of analgesia); assay type: in vivo, male Wistar rats
Method: Male Wistar rats weighing 110±5 g were caged for 10 days at 22±1° C. and given a balanced diet with free access to water. Twenty-four hours before the experiment the animals were randomized into groups of 10 and fasted for 14 hours but with free access to water. Each dose was tested in 3 groups of rats. […] alone (0.5% carboxymethyl-cellulose in physiological saline) in the control animals, each rat was given 2 ml of a 5% absolute ethanol aqueous solution containing 0.36% of phenyl-p-quinone (Sigma Chemical Company) in order to provoke writhings. Fifteen minutes after administration of phenyl-p-quinone the number of contractions were counted for 20 minutes. The inhibiting effect of the compounds under examination on the abdominal contractions induced by phenyl-p-quinone was calculated by the following formula: % protection= [formula]

## Cc1ccc(C(=O)c2ccc(CC(=O)NCC(=O)O)n2C)cc1 [Compound 1-c, 1-methyl-5-p-toluoylpyrrole-2-acetamidoacetic acid]
solubility
  Solubility: soluble in alkali
Gastric lesions; 50 mg/Kg orally
  % incidence/10 (head is drawing 38): 7
  mean no. of lesions: 1
  gastric damage index: 9.5
  mean severity: 1.5
Gastric lesions; 100 mg/Kg orally
  % incidence/10 (head is drawing 38): 8
  mean no. of lesions: 2
  gastric damage index: 12
  mean severity: 2
Gastric lesions; 200 mg/Kg orally
  % incidence/10 (head is drawing 38): 9
  mean no. of lesions: 2.5
  gastric damage index: 13.5
  mean severity: 2
[1]; 50 mg/Kg i.p., 1 h
  % Temperature decrease: 20.0%
[1]; 50 mg/Kg i.p., 2 h
  % Temperature decrease: 21.9%
[1]; 50 mg/Kg i.p., 3 h
  % Temperature decrease: 36.0%
[1]; 50 mg/Kg per os, 1 h
  % Temperature decrease: 15.0%
[1]; 50 mg/Kg per os, 2 h
  % Temperature decrease: 23.0%
[1]; 50 mg/Kg per os, 3 h
  % Temperature decrease: 32.0%
[1]; 75 mg/Kg i.p., 1 h
  % Temperature decrease: 19.0%
[1]; 75 mg/Kg i.p., 2 h
  % Temperature decrease: 32.6%
[1]; 75 mg/Kg i.p., 3 h
  % Temperature decrease: 45.2%
[1]; 75 mg/Kg per os, 1 h
  % Temperature decrease: 16.5%
[1]; 75 mg/Kg per os, 2 h
  % Temperature decrease: 30.7%
[1]; 75 mg/Kg per os, 3 h
  % Temperature decrease: 42.1%
[1]; 100 mg/Kg i.p., 1 h
  % Temperature decrease: 35.0%
[1]; 100 mg/Kg i.p., 2 h
  % Temperature decrease: 49.1%
[1]; 100 mg/Kg i.p., 3 h
  % Temperature decrease: 65.7%
[1]; 100 mg/Kg per os, 1 h
  % Temperature decrease: 27.1%
[1]; 100 mg/Kg per os, 2 h
  % Temperature decrease: 31.2%
[1]; 100 mg/Kg per os, 3 h
  % Temperature decrease: 57.9%
In vivo [2]; ip
  LD50: 700 mg/kg
In vivo [2]; po
  LD50: 1000 mg/kg
In vivo [3]; ip
  LD50: 780 mg/kg
In vivo [3]; po
  LD50: 1300 mg/kg

## CCOC(=O)c1ccc(NC(=O)Cc2ccc(C(=O)c3ccc(C)cc3)n2C)cc1 [Compound 1-h, 1-methyl-5-p-toluoylpyrrole-2-N-(4-carboxyethyl-phenyl) acetamide]
Gastric lesions; 50 mg/Kg orally
  % incidence/10 (head is drawing 38): 7
  mean no. of lesions: 1
  gastric damage index: 9
  mean severity: 1
Gastric lesions; 100 mg/Kg orally
  % incidence/10 (head is drawing 38): 8
  mean no. of lesions: 1.5
  gastric damage index: 10.5
  mean severity: 1
Gastric lesions; 200 mg/Kg orally
  % incidence/10 (head is drawing 38): 8
  mean no. of lesions: 2
  gastric damage index: 11.5
  mean severity: 1.5
[1]; 50 mg/Kg i.p., 1 h
  % Temperature decrease: 12.0%
[1]; 50 mg/Kg i.p., 2 h
  % Temperature decrease: 29.1%
[1]; 50 mg/Kg i.p., 3 h
  % Temperature decrease: 36.2%
[1]; 50 mg/Kg per os, 1 h
  % Temperature decrease: 13.0%
[1]; 50 mg/Kg per os, 2 h
  % Temperature decrease: 28.0%
[1]; 50 mg/Kg per os, 3 h
  % Temperature decrease: 31.1%
[1]; 75 mg/Kg i.p., 1 h
  % Temperature decrease: 18.0%
[1]; 75 mg/Kg i.p., 2 h
  % Temperature decrease: 27.2%
[1]; 75 mg/Kg i.p., 3 h
  % Temperature decrease: 39.4%
[1]; 75 mg/Kg per os, 1 h
  % Temperature decrease: 17.0%
[1]; 75 mg/Kg per os, 2 h
  % Temperature decrease: 29.1%
[1]; 75 mg/Kg per os, 3 h
  % Temperature decrease: 39.4%
[1]; 100 mg/Kg i.p., 1 h
  % Temperature decrease: 23.1%
[1]; 100 mg/Kg i.p., 2 h
  % Temperature decrease: 39.3%
[1]; 100 mg/Kg i.p., 3 h
  % Temperature decrease: 60.2%
[1]; 100 mg/Kg per os, 1 h
  % Temperature decrease: 21.0%
[1]; 100 mg/Kg per os, 2 h
  % Temperature decrease: 35.1%
[1]; 100 mg/Kg per os, 3 h
  % Temperature decrease: 51.8%

## Cc1ccc(C(=O)c2ccc(CC(=O)N3CCOCC3)n2C)cc1 [Compound 3-a, 1-methyl-5-p-toluoylpyrrole-2-N-(4-morpholinyl) acetamide]
Gastric lesions; 50 mg/Kg orally
  % incidence/10 (head is drawing 38): 7
  mean no. of lesions: 1
  gastric damage index: 9
  mean severity: 1
Gastric lesions; 100 mg/Kg orally
  % incidence/10 (head is drawing 38): 8
  mean no. of lesions: 1.5
  gastric damage index: 11.5
  mean severity: 2
Gastric lesions; 200 mg/Kg orally
  % incidence/10 (head is drawing 38): 9
  mean no. of lesions: 1.5
  gastric damage index: 12.5
  mean severity: 2
[1]; 50 mg/Kg i.p., 1 h
  % Temperature decrease: 16.0%
[1]; 50 mg/Kg i.p., 2 h
  % Temperature decrease: 26.0%
[1]; 50 mg/Kg i.p., 3 h
  % Temperature decrease: 36.7%
[1]; 50 mg/Kg per os, 1 h
  % Temperature decrease: 15.5%
[1]; 50 mg/Kg per os, 2 h
  % Temperature decrease: 23.0%
[1]; 50 mg/Kg per os, 3 h
  % Temperature decrease: 32.1%
[1]; 75 mg/Kg i.p., 1 h
  % Temperature decrease: 19.0%
[1]; 75 mg/Kg i.p., 2 h
  % Temperature decrease: 30.2%
[1]; 75 mg/Kg i.p., 3 h
  % Temperature decrease: 39.4%
[1]; 75 mg/Kg per os, 1 h
  % Temperature decrease: 16.2%
[1]; 75 mg/Kg per os, 2 h
  % Temperature decrease: 29.1%
[1]; 75 mg/Kg per os, 3 h
  % Temperature decrease: 39.4%
[1]; 100 mg/Kg i.p., 1 h
  % Temperature decrease: 21.3%
[1]; 100 mg/Kg i.p., 2 h
  % Temperature decrease: 36.1%
[1]; 100 mg/Kg i.p., 3 h
  % Temperature decrease: 58.1%
[1]; 100 mg/Kg per os, 1 h
  % Temperature decrease: 22.0%
[1]; 100 mg/Kg per os, 2 h
  % Temperature decrease: 29.5%
[1]; 100 mg/Kg per os, 3 h
  % Temperature decrease: 56.1%
In vivo [2]; ip
  LD50: 1500 mg/kg
In vivo [2]; po
  LD50: > 2000 mg/kg
In vivo [3]; ip
  LD50: 1370 mg/kg
In vivo [3]; po
  LD50: > 2400 mg/kg

## Cc1ccc(C(=O)c2ccc(CC(=O)N3CCN(C)CC3)n2C)cc1 [Compound 3-b, 1-methyl-5-p-toluoylpyrrole-2-N-[(4-methyl)-1-piperazinyl] acetamide]
Gastric lesions; 50 mg/Kg orally
  % incidence/10 (head is drawing 38): 7
  mean no. of lesions: 1
  gastric damage index: 9
  mean severity: 1
Gastric lesions; 100 mg/Kg orally
  % incidence/10 (head is drawing 38): 7
  mean no. of lesions: 1
Gastric lesions; 200 mg/Kg orally
  % incidence/10 (head is drawing 38): 8
  mean no. of lesions: 2
[1]; 50 mg/Kg i.p., 1 h
  % Temperature decrease: 12.9%
[1]; 50 mg/Kg i.p., 2 h
  % Temperature decrease: 23.0%
[1]; 50 mg/Kg i.p., 3 h
  % Temperature decrease: 38.3%
[1]; 50 mg/Kg per os, 1 h
  % Temperature decrease: 13.1%
[1]; 50 mg/Kg per os, 2 h
  % Temperature decrease: 21.0%
[1]; 50 mg/Kg per os, 3 h
  % Temperature decrease: 36.2%
[1]; 75 mg/Kg i.p., 1 h
  % Temperature decrease: 23.4%
[1]; 75 mg/Kg i.p., 2 h
  % Temperature decrease: 29.0%
[1]; 75 mg/Kg i.p., 3 h
  % Temperature decrease: 48.5%
[1]; 75 mg/Kg per os, 1 h
  % Temperature decrease: 19.0%
[1]; 75 mg/Kg per os, 2 h
  % Temperature decrease: 29.1%
[1]; 75 mg/Kg per os, 3 h
  % Temperature decrease: 40.6%
[1]; 100 mg/Kg i.p., 1 h
  % Temperature decrease: 32.9%
[1]; 100 mg/Kg i.p., 2 h
  % Temperature decrease: 39.0%
[1]; 100 mg/Kg i.p., 3 h
  % Temperature decrease: 60.1%
[1]; 100 mg/Kg per os, 1 h
  % Temperature decrease: 27.0%
[1]; 100 mg/Kg per os, 2 h
  % Temperature decrease: 35.0%
[1]; 100 mg/Kg per os, 3 h
  % Temperature decrease: 59.7%
In vivo [2]; ip
  LD50: 770 mg/kg
In vivo [2]; po
  LD50: 1200 mg/kg
In vivo [3]; ip
  LD50: 590 mg/kg
In vivo [3]; po
  LD50: 1000 mg/kg

## Cc1ccc(C(=O)c2ccc(CC(=O)O)n2C)cc1 [Tolmetin Na.2H2 O, 1-methyl-5-p-toluoylpyrrole-2-acetic acid, reference compound]
[4]; 10 mg/Kg oral, 1 h before phenyl-quinone
  % Protection: 51.8%
[4]; 10 mg/Kg oral, 2 h before phenyl-quinone
  % Protection: 35.5%
[4]; 10 mg/Kg oral, 4 h before phenyl-quinone
  % Protection: 32.0%
[4]; 10 mg/Kg oral, 6 h before phenyl-quinone
  % Protection: 17.2%
[4]; 10 mg/Kg oral, 8 h before phenyl-quinone
  % Protection: 20.2%
[4]; 10 mg/Kg oral, 16 h before phenyl-quinone
  % Protection: 3.0%
[4]; 10 mg/Kg oral, 24 h before phenyl-quinone
  % Protection: 5.0%
[4]; 20 mg/Kg oral, 1 h before phenyl-quinone
  % Protection: 79.6%
[4]; 20 mg/Kg oral, 2 h before phenyl-quinone
  % Protection: 78.0%
[4]; 20 mg/Kg oral, 4 h before phenyl-quinone
  % Protection: 50.0%
[4]; 20 mg/Kg oral, 6 h before phenyl-quinone
  % Protection: 45.3%
[4]; 20 mg/Kg oral, 8 h before phenyl-quinone
  % Protection: 40.1%
[4]; 20 mg/Kg oral, 16 h before phenyl-quinone
  % Protection: 8.7%
[4]; 20 mg/Kg oral, 24 h before phenyl-quinone
  % Protection: 4.2%
[4]; 50 mg/Kg oral, 1 h before phenyl-quinone
  % Protection: 81.0%
[4]; 50 mg/Kg oral, 2 h before phenyl-quinone
  % Protection: 84.6%
[4]; 50 mg/Kg oral, 4 h before phenyl-quinone
  % Protection: 62.5%
[4]; 50 mg/Kg oral, 6 h before phenyl-quinone
  % Protection: 49.7%
[4]; 50 mg/Kg oral, 8 h before phenyl-quinone
  % Protection: 45.0%
[4]; 50 mg/Kg oral, 16 h before phenyl-quinone
  % Protection: 9.3%
[4]; 50 mg/Kg oral, 24 h before phenyl-quinone
  % Protection: 3.8%
